Read-outs that look alike come from different tables or passages of the source.
Test system: firefly luciferase activity
Assay: Dual-Glo firefly/renilla luciferase reporter assay in cells
Format: cell-based
[1] = 24 hrs compound treatment, starting from 3 uM, 1:3 dilution, 10 points, read-out: Firefly Luciferase IC50

Structure (SMILES) | IC50 [1] | IC50 (24 h, read-out: Firefly Luciferase IC50 (μM))
CC(CO)n1nnc(-c2ccccc2Nc2ccc(C(F)(F)F)cc2)n1 (stereo not drawn) [Compound 125, 2-[5-[2-[4-(trifluoromethyl)anilino]phenyl]tetrazol-2-yl]propan-1-ol] | < 0.1 µM | 
FCCCn1nnc(-c2ccccc2Nc2ccc(C(F)(F)F)cc2)n1 [Compound 126, 2-[2-(3-fluoropropyl)tetrazol-5-yl]-N-[4-(trifluoromethyl)phenyl]aniline] | 0.1 to 1 µM | 
OC(Cn1nnc(-c2ccccc2Nc2ccc(C(F)(F)F)cc2)n1)C1CC1 (stereo not drawn) [Compound 127, 1-cyclopropyl-2-[5-[2-[4-(trifluoromethyl)anilino]phenyl]tetrazol-2-yl]ethanol] | < 0.1 µM | 
CC(C)C(=O)Cn1nnc(-c2ccccc2Nc2ccc(C(F)(F)F)cc2)n1 [Compound 128, 3-methyl-1-[5-[2-[4-(trifluoromethyl)anilino]phenyl]tetrazol-2-yl]butan-2-one] | 0.1 to 1 µM | 
COCC(C)n1nnc(-c2ccccc2Nc2ccc(C(F)(F)F)cc2)n1 (stereo not drawn) [Compound 129, 2-(2-(1-methoxypropan-2-yl)-2H-tetrazol-5-yl)-N-(4-(trifluoromethyl)phenyl) Aniline] | < 0.1 µM | 
O=C(Cn1nnc(-c2ccccc2Nc2ccc(C(F)(F)F)cc2)n1)c1ccccc1 [Compound 130, 1-phenyl-2-[5-[2-[4-(trifluoromethyl)anilino]phenyl]tetrazol-2-yl]ethanone] | 1 to 5 µM | 
OC(Cn1nnc(-c2ccccc2Nc2ccc(C(F)(F)F)cc2)n1)C(F)(F)F (stereo not drawn) [Compound 131, 1,1,1-trifluoro-3-[5-[2-[4-(trifluoromethyl)anilino]phenyl]tetrazol-2-yl]propan-2-ol] | < 0.1 µM | 
C[C@H](c1ccccc1)N1C(=O)OC[C@H]1Cn1nnc(-c2ccccc2Nc2ccc(C(F)(F)F)cc2)n1 [Compound 132, (4R)-3-[(1R)-1-phenylethyl]-4-[[5-[2-[4-(trifluoromethyl)anilino]phenyl]tetrazol-2-yl]methyl]oxazolidin-2-one] | 0.1 to 1 µM | 
OC1(Cn2nnc(-c3ccccc3Nc3ccc(C(F)(F)F)cc3)n2)CCCCC1 [Compound 133, 1-[[5-[2-[4-(trifluoromethyl)anilino]phenyl]tetrazol-2-yl]methyl]cyclohexanol] | 0.1 to 1 µM | 
OC1(Cn2nnc(-c3ccccc3Nc3ccc(C(F)(F)F)cc3)n2)CCNCC1 [Compound 135, 4-[[5-[2-[4-(trifluoromethyl)anilino]phenyl]tetrazol-2-yl]methyl]piperidin-4-ol] | 1 to 5 µM | 
O=C1NCC(Cn2nnc(-c3ccccc3Nc3ccc(C(F)(F)F)cc3)n2)O1 (stereo not drawn) [Compound 136, 5-((5-(2-((4-(trifluoromethyl)phenyl)amino)phenyl)-2H-tetrazol-2-yl)methyl)oxazolidin-2-one] | 0.1 to 1 µM | 
OC1(Cn2nnc(-c3ccccc3Nc3ccc(C(F)(F)F)cc3)n2)CCOCC1 [Compound 138, 4-[[5-[2-[4-(trifluoromethyl)anilino]phenyl]tetrazol-2-yl]methyl]tetrahydropyran-4-ol] | 0.1 to 1 µM | 
CCC(O)Cn1nnc(-c2ccccc2Nc2ccc(C(F)(F)F)cc2)n1 (stereo not drawn) [Compound 139, 1-(5-(2-((4-(trifluoromethyl)phenyl)amino)phenyl)-2H-tetrazol-2-yl)butan-2-ol] | < 0.1 µM | 
FC(F)(F)c1ccc(Nc2ccccc2-c2nnn(-c3ccccn3)n2)cc1 [Compound 140, 2-[2-(2-pyridyl)tetrazol-5-yl]-N-[4-(trifluoromethyl)phenyl]aniline] | 0.1 to 1 µM | 
CC(C)C(O)Cn1nnc(-c2ccccc2Nc2ccc(C(F)(F)F)cc2)n1 (stereo not drawn) [Compound 141, 3-methyl-1-[5-[2-[4-(trifluoromethyl)anilino]phenyl]tetrazol-2-yl]butan-2-ol] | 0.1 to 1 µM | 
OC1(Cn2nnc(-c3ccccc3Nc3ccc(C(F)(F)F)cc3)n2)CCCOC1 (stereo not drawn) [Compound 142, 3-[[5-[2-[4-(trifluoromethyl)anilino]phenyl]tetrazol-2-yl]methyl]tetra hydropyran-3-ol] | 0.1 to 1 µM | 
OC(Cn1nnc(-c2ccccc2Nc2ccc(C(F)(F)F)cc2)n1)c1ccccc1 (stereo not drawn) [Compound 143, 1-phenyl-2-[5-[2-[4-(trifluoromethyl)anilino]phenyl]tetrazol-2-yl]ethanol] | 1 to 5 µM | 
CC(C)(C)OC(=O)N1CCCC(O)(Cn2nnc(-c3ccccc3Nc3ccc(C(F)(F)F)cc3)n2)C1 (stereo not drawn) [Compound 147] | 1 to 5 µM | 
OC1(Cn2nnc(-c3ccccc3Nc3ccc(C(F)(F)F)cc3)n2)CCOC1 (stereo not drawn) [Compound 151, 3-[[5-[2-[4-(trifluoromethyl)anilino]phenyl]tetrazol-2-yl]methyl]tetrahydro furan-3-ol] | < 0.1 µM | 
OC1(Cn2nnc(-c3ccccc3Nc3ccc(C(F)(F)F)cc3)n2)CCCC1 [Compound 152, 1-((5-(2-((4-(Trifluoromethyl)phenyl)amino)phenyl)-2H-tetrazol-2-yl)methyl)cyclopentanol] | < 0.1 µM | 
OC1(Cn2nnc(-c3ccccc3Nc3ccc(C(F)(F)F)cc3)n2)CCNC1 (stereo not drawn) [Compound 153, 3-((5-(2-((4-(trifluoromethyl)phenyl)amino)phenyl)-2H-tetrazol-2-yl)methyl)pyrrolidin-3-ol] | 0.1 to 1 µM | 

Structure (SMILES) | IC50 [1] | IC50 (24 h, read-out: Firefly Luciferase IC50 (μM))
CC(=O)N1CCC(O)(Cn2nnc(-c3ccccc3Nc3ccc(C(F)(F)F)cc3)n2)C1 (stereo not drawn) [Compound 154, 1-(3-hydroxy-3-((5-(2-((4-(trifluoromethyl)phenyl)amino)phenyl)-2H-tetrazol-2-yl)methyl)pyrrolidin-1-yl)ethanone] | 0.1 to 1 µM | 
CC(=O)N1CCCC(O)(Cn2nnc(-c3ccccc3Nc3ccc(C(F)(F)F)cc3)n2)C1 (stereo not drawn) [Compound 155, 1-(3-hydroxy-3-((5-(2-((4-(trifluoromethyl)phenyl)amino)phenyl)-2H-tetrazol-2-yl)methyl)piperidin-1-yl) Ethanone] | 0.1 to 1 µM | 
OC1(Cn2nnc(-c3ccccc3Nc3ccc(C(F)(F)F)cc3)n2)CCCNC1 (stereo not drawn) [Compound 156, 3-((5-(2-((4-(trifluoromethyl)phenyl)amino)phenyl)-2H-tetrazol-2-yl)methyl) piperidin-3-ol] | 0.1 to 1 µM | 
OC1(Cn2nnc(-c3ccccc3Nc3ccc(C(F)(F)F)cc3)n2)CNC1 [Compound 157, 3-[[5-[2-[4-(trifluoromethyl)anilino]phenyl]tetrazol-2-yl]methyl]azetidin-3-ol] | 0.1 to 1 µM | 
O=C1N[C@H](Cn2nnc(-c3ccccc3Nc3ccc(C(F)(F)F)cc3)n2)CO1 [Compound 158, (R)-4-((5-(2-((4-(trifluoromethyl)phenyl)amino)phenyl)-2H-tetrazol-2-yl)methyl)oxazolidin-2-one] | 0.1 to 1 µM | 
CC(=O)N1CC(O)(Cn2nnc(-c3ccccc3Nc3ccc(C(F)(F)F)cc3)n2)C1 [Compound 161, 1-[3-hydroxy-3-[[5-[2-[4-(trifluoromethyl)anilino]phenyl]tetrazol-2-yl]methyl]azetidin-1-yl]ethanone] | 0.1 to 1 µM | 
CC(=O)OC1(Cn2nnc(-c3ccccc3Nc3ccc(C(F)(F)F)cc3)n2)CN(C(C)=O)C1 [Compound 162, [1-acetyl-3-[[5-[2-[4-(trifluoromethyl)anilino]phenyl]tetrazol-2-yl]methyl]azetidin-3-yl]acetate] | 1 to 5 µM | 
FC(F)(F)c1ccc(Nc2ccccc2-c2nnn(-c3cccnc3)n2)cc1 [Compound 165, 2-[2-(3-pyridyl)tetrazol-5-yl]-N-[4-(trifluoromethyl)phenyl]aniline] | 1 to 5 µM | 
FC(F)(F)c1ccc(Nc2ccccc2-c2nnn(CC3COC3)n2)cc1 [Compound 166, 2-(2-(oxetan-3-ylmethyl)-2H-tetrazol-5-yl)-N-(4-(trifluoromethyl)phenyl) Aniline] | 0.1 to 1 µM | 
O=C1NCC(Cn2nnc(-c3ccccc3Nc3ccc(C(F)(F)F)cc3)n2)N1 (stereo not drawn) [Compound 167, 4-((5-(2-((4-(trifluoromethyl)phenyl)amino)phenyl)-2H-tetrazol-2-yl)methyl)imidazolidin-2-one] | 0.1 to 1 µM | 
OC1(Cn2nnc(-c3ccccc3Nc3ccc(C(F)(F)F)cc3)n2)CCC1 [Compound 169, 1-((5-(2-((4-(Trifluoromethyl)phenyl)amino)phenyl)-2H-tetrazol-2-yl)methyl)cyclobutanol] | < 0.1 µM | 
FC(F)(F)c1ccc(Nc2ccccc2-c2nnn(CC3CCC3)n2)cc1 [Compound 170, 2-(2-(Cyclobutylmethyl)-2H-tetrazol-5-yl)-N-(4-(trifluoromethyl)phenyl)aniline] | 0.1 to 1 µM | 
Cn1nnc(-c2ccccc2Nc2ccc(C(F)(F)F)cc2)n1 [Compound 171, 2-(2-methyltetrazol-5-yl)-N-[4-(trifluoromethyl)phenyl]aniline] | 0.1 to 1 µM | 
OC1(Cn2nnc(-c3ccccc3Nc3ccc(C(F)(F)F)cc3)n2)CCN(c2ccccc2)C1 (stereo not drawn) [Compound 172] | 1 to 5 µM | 
COCCn1nnc(-c2ccccc2Nc2ccc(C(F)(F)F)cc2)n1 [Compound 173, 2-(2-(2-methoxyethyl)-2H-tetrazol-5-yl)-N-(4-(trifluoromethyl)phenyl)aniline] | < 0.1 µM | 
OCCn1nnc(-c2cc(F)ccc2Nc2ccc(C(F)(F)F)cc2)n1 [Compound 175, 2-[5-[5-fluoro-2-[4-(trifluoromethyl)anilino]phenyl]tetrazol-2-yl]ethanol] | < 0.1 µM | 
OC1(Cn2nnc(-c3ccccc3Nc3ccc(C(F)(F)F)cc3)n2)CCCN(c2ccccc2)C1 (stereo not drawn) [Compound 176] | 0.1 to 1 µM | 
[N-]=[N+]=Nc1ccc(Nc2ccccc2-c2nnn(CCO)n2)cc1 [Compound 179, 2-[5-[2-(4-azidoanilino)phenyl]tetrazol-2-yl]ethanol] | 0.1 to 1 µM | 
O=C1NC(Cn2nnc(-c3ccccc3Nc3ccc(C(F)(F)F)cc3)n2)CO1 (stereo not drawn) [Compound 180, 4-((5-(2-((4-(trifluoromethyl)phenyl)amino)phenyl)-2H-tetrazol-2-yl)methyl)oxazolidin-2-one] | 0.1 to 1 µM | 
OCCn1nnc(-c2ccc(F)cc2Nc2ccc(C(F)(F)F)cc2)n1 [Compound 181, 2-[5-[4-fluoro-2-[4-(trifluoromethyl)anilino]phenyl]tetrazol-2-yl]ethanol] | < 0.1 µM | 
FC(F)OCCn1nnc(-c2ccccc2Nc2ccc(C(F)(F)F)cc2)n1 [Compound 183, 2-(2-(2-(difluoromethoxy)ethyl)-2H-tetrazol-5-yl)-N-(4-(trifluoromethyl)phenyl)aniline] |  | 0.1 to 1 µM

Reference: patent US11186554B2, “Non-fused tricyclic compounds” (VIVACE THERAPEUTICS, INC., priority 2017, dated 2021)
